Results taken from patent US5049380A, “Anti-allergic extract” (Bar-Ilan University, priority 1989, dated 1991).

Tested on: potato 5-lipoxygenase
Assay: Inhibition of potato 5-lipoxygenase, arachidonic acid oxidation, polarographic
Type: biochemical
Conditions: caffeic acid 0.33 mM final concentration, AA 313 2 mg.
Procedure: A reaction mixture containing 1050 units potato 5-lipoxygenase was subjected to the action of the known inhibitor caffeic acid as well as to 2 mg AA 313. Enzyme activity was tested by the ability of a sample of the reaction mixture to oxidize arachidonic acid (concentration of 0.33 mM). […] Enzyme activity was estimated polarographically.

% Inhibition: 64%
Enzyme activity (units) (control 1050 units): 375 units
Structure (SMILES): O=C(O)/C=C/c1ccc(O)c(O)c1 [caffeic acid]
